Here are results for three molecules from US4097471A, “Polypeptides with morphine-like activity” (American Home Products Corporation, priority 1977, dated 1978).

One experiment concerns analgesia. The settings on record: injection in the brain ventricle in rats; fully reversible by naloxone; cited from earlier work.
Experiment [1] has as its system pain threshold (tail-flick latency). Description: rat-tail flick method, intracerebroventricular injection. The format is in vivo. The settings on record: for Mean Latency ± SEM, Drug / Mean % Change ± SEM: injected into lateral ventricle; for Mean Latency ± SEM, Drug / Mean % Change ± SEM / analgesic effect / pain threshold: rat; for Mean % Change ± SEM: drug minus baseline latency; for analgesic effect / pain threshold: injected into the lateral brain ventricle. The procedure:
In this test method, which is a standard test for analgesia, a light beam is focused on the tip of the rat's tail, and the pain threshold of the animal is measured by the latency of the rat to remove his tail from the noxious heat source. When tested by the rat-tail flick method by intracerebroventricular injection, according to the procedure of Belluzzi et al., Nature, 260, 625 (1976), the polypeptides of this invention produced the effects set forth in Table I.
*All drugs were dissolved in […]. of Ringer's solution and injected int
the lateral ventricle through permanently-indwelling cannulae.

The next experiment concerns opiate receptors. Description: binding to opiate receptors in vitro, displacement of 3H-naloxone in rat brain homogenates. In general terms: Displacement assays read how much labelled ligand stays bound in the presence of the test substance.

Peptide text beside a SMILES is read from it.

In the case of `CC(C)C[C@H](NC(=O)[C@H](Cc1ccccc1)NC(=O)CNC(=O)CNC(=O)[C@@H](N)Cc1ccc(O)cc1)C(=O)O` [Leucine-Enkephalin, H-Tyr-Gly-Gly-Phe-Leu-OH, reference compound], in the experiment on analgesia, the analgesia entry is given as “induce a profound analgesia”. In experiment [1] (dose 100 μg), the “Mean Latency ± SEM, Drug” value amounted to 5.11 ± 0.34 and the “Mean % Change ± SEM” value was 31.7 ± 11.5%.

Consider `CC(C)C[C@H](NC(=O)[C@H](Cc1ccccc1)NC(=O)CNC(=O)CNC(=O)[C@@H](N)Cc1ccc(O)cc1)C(=O)N[C@H](C(=O)N[C@@H](CO)C(=O)N[C@@H](CCC(=O)O)C(=O)N[C@@H](CCCCN)C(=O)N[C@@H](CO)C(=O)N[C@@H](CCC(N)=O)C(=O)N[C@H](C(=O)N1CCC[C@H]1C(=O)N[C@@H](CC(C)C)C(=O)N[C@H](C(=O)N[C@H](C(=O)O)[C@@H](C)O)C(C)C)[C@@H](C)O)[C@@H](C)O` [β-LPH 61-76 (Leu^65), L-Tyrosyl-glycyl-glycyl-L-phenylalanyl-L-leucyl-L-threonyl-L-seryl-L-glutamyl-L-lysyl-L-seryl-L-glutaminyl-L-threonyl-L-prolyl-L-leucyl-L-valyl-L-threonine] (H-YGGFLTSEKSQTPLVT-OH), for which the “binding to opiate receptors in vitro” value with opiate receptors (in vitro) is “weak binding”. Also, the “displacing 3H-naloxone from binding sites” value in the experiment on opiate receptors (rat brain homogenates) is recorded as “capable of displacing 3H-naloxone”. Also, the figures for the “Mean Latency ± SEM, Drug” value in experiment [1] (dose 10 μg), in experiment [1] (dose 100 μg) and in experiment [1] (dose 200 μg) were 4.33 ± 0.05, 6.26 ± 0.96 and 4.16, respectively. Besides, the entries for the “Mean % Change ± SEM” value in experiment [1] (dose 10 μg), in experiment [1] (dose 100 μg) and in experiment [1] (dose 200 μg) were 34.32 ± 8.75%, 86.02 ± 30.79% and 3.04%, respectively. The “analgesic activity at low dose” value in experiment [1] (dose as low as 10 μg) is “active”. Moreover, the “duration of analgesic effect” value in experiment [1] (dose as low as 10 μg) was more than 2 h. In addition, the results for the “analgesic effect / pain threshold” value in experiment [1] (listed as polypeptide of Formula I) and in experiment [1] (listed as polypeptide of this invention) were “exerts an analgesic effect” and “produced an increase in pain threshold”, respectively.

Regarding `CSCC[C@H](NC(=O)[C@H](Cc1ccccc1)NC(=O)CNC(=O)CNC(=O)[C@@H](N)Cc1ccc(O)cc1)C(=O)O` [Methionine-Enkaphalin, H-Tyr-Gly-Gly-Phe-Met-OH], the analgesia entry in the experiment with analgesia was “induce a profound analgesia”.
